Assay results from ChEMBL document CHEMBL1201862, “PubChem BioAssay data set” (2004).
The source made the active and inactive calls.

Assays:
[1] = molecular target: T1, Adenosylmethionine-8-amino-7-oxononanoate aminotransferase (Mycobacterium tuberculosis, UniProt P9WQ81); test: Mycobacterium tuberculosis BioA enzyme inhibitor Measured in Biochemical System Using Plate Reader - 2163-02_Inhibitor_Dose_CherryPick_Activity.; format: functional, Mycobacterium tuberculosis UT205
T1 sequence (P9WQ81 whole entry): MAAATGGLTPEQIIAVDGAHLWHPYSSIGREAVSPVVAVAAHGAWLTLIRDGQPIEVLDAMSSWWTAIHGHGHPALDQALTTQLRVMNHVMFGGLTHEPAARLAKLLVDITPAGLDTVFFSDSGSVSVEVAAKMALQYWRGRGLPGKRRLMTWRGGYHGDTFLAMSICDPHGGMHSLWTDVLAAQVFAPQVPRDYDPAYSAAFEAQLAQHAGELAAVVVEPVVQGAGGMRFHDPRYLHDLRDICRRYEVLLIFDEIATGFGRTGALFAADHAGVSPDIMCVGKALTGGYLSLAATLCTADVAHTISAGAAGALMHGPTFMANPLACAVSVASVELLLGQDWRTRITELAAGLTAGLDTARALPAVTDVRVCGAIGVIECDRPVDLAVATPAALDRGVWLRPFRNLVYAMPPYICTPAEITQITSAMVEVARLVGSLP

Genome polyprotein = Genome polyprotein (dengue virus type 2, UniProt P29990); test: flavivirus cap methylation enzyme inhibition – biochemical, confirmation dose response, primary screen (AID 588689); format: functional
Genome polyprotein, sequence (P29990 2492-3391 limits assumed): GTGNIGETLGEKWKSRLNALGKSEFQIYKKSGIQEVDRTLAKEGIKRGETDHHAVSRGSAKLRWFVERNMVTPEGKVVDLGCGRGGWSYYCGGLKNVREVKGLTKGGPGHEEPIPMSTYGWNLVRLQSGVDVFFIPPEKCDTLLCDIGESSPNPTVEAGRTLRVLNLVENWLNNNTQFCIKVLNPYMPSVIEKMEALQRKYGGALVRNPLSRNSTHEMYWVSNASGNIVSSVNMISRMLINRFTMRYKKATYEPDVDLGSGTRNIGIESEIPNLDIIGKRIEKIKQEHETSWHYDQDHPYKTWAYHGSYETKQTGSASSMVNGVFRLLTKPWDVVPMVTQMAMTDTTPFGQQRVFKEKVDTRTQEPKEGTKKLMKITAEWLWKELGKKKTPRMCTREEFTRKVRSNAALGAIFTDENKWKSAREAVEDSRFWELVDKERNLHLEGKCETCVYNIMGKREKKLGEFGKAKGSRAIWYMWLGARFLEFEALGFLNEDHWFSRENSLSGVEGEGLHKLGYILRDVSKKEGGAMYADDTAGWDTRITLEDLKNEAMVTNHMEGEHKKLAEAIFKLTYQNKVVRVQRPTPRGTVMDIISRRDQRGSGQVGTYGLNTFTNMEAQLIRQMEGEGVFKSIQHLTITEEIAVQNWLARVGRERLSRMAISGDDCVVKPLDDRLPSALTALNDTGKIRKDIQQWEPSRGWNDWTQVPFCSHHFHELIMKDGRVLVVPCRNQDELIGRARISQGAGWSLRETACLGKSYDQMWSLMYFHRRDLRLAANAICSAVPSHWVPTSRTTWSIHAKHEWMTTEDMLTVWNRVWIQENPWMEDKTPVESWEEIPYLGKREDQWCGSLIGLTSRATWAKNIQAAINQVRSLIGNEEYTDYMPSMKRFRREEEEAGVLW

[2] = molecular target: Heat shock protein HSP 90-alpha (Homo sapiens, UniProt P07900); format: functional, organism-based
[3] = molecular target: T2, High affinity choline transporter 1 (Homo sapiens, UniProt Q9GZV3); test: human choline transporter blockers, potency – cell-based, 5-point CRC, membrane potential dye, dose response (AID 504840); format: functional
T2 sequence (Q9GZV3 whole entry): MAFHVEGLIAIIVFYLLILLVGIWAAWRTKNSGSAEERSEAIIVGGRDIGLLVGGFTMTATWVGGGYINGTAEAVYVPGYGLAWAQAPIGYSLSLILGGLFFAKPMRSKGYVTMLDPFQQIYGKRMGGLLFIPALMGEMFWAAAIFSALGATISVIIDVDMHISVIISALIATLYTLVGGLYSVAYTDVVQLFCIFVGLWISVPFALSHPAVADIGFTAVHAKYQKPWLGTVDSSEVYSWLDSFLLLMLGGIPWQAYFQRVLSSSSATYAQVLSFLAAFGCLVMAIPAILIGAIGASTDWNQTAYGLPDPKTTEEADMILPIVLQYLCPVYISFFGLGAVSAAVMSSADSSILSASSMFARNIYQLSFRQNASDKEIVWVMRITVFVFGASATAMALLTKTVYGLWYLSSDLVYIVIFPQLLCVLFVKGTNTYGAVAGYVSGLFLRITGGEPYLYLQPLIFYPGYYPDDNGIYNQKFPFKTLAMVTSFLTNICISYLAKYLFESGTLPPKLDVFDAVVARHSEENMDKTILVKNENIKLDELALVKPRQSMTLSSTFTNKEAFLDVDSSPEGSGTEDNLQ

[4] = viability of PTEN-deleted HCT116 cells – cell-based, HCT116 PTEN knockout, dose response (AID 1047); format: functional;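 further: HCT116 colon tumor cells with PTEN knocked out; cells exposed to compound for 60 hours before readout; potency for loss of cell viability measured by luminescence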
[5] = viability of HCT116 lacking mutant beta-catenin – cell-based, human colon tumor, dose response (AID 1045); format: functional;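 further: HCT116 colon tumor cells with beta catenin knocked out; cells exposed to compound for 60 hours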
[6] = molecular target: Glyceraldehyde-3-phosphate dehydrogenase (Homo sapiens, UniProt P04406)
Glyceraldehyde-3-phosphate dehydrogenase, sequence (P04406 whole entry): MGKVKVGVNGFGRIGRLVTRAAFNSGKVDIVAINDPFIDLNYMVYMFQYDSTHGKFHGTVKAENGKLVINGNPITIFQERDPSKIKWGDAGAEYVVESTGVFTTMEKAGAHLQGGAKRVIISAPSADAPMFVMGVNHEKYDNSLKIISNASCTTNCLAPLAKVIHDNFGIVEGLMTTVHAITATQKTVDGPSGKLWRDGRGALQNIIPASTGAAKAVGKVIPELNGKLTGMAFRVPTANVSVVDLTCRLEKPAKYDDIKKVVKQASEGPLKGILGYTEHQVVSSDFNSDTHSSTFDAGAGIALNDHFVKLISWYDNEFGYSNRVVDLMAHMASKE

P388/ADR = test: cells; format: functional; settings: Mus musculus
SN12K1 = test: cells; format: functional; settings: Homo sapiens
P388 = test: cells; format: functional; settings: Mus musculus
[7] = molecular target: Luciferin 4-monooxygenase (Photinus pyralis, UniProt P08659); test: inhibition of purified Photinus pyralis luciferase – biochemical, luminescence, dose response (AID 1891)
Luciferin 4-monooxygenase, sequence (P08659 whole entry): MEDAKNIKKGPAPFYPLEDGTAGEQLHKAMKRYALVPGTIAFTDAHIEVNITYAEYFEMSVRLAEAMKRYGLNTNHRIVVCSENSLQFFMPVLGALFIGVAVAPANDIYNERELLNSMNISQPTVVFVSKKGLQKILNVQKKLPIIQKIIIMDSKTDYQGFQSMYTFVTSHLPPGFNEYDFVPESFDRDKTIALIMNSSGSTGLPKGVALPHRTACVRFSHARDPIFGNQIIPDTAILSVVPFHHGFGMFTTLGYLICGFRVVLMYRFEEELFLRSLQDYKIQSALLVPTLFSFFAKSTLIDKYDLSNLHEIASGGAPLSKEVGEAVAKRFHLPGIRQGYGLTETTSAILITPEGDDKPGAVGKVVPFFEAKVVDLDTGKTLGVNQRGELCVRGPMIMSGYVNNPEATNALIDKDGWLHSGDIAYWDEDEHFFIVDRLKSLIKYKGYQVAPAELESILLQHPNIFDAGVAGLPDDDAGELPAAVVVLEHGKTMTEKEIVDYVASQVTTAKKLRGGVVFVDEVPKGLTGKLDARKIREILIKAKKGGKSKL

[8] = Luminescence Cell-Based Dose Confirmation HTS to Identify Inhibitors of Platelet Dense Granule Release. [Related pubchem assays: 1663 (Primary HTS), 1678 (Summary of Project)]; format: functional
Protein skinhead-1 = molecular target: T3, Protein skinhead-1 (Caenorhabditis elegans, UniProt P34707); format: functional
T3 sequence (P34707 whole entry): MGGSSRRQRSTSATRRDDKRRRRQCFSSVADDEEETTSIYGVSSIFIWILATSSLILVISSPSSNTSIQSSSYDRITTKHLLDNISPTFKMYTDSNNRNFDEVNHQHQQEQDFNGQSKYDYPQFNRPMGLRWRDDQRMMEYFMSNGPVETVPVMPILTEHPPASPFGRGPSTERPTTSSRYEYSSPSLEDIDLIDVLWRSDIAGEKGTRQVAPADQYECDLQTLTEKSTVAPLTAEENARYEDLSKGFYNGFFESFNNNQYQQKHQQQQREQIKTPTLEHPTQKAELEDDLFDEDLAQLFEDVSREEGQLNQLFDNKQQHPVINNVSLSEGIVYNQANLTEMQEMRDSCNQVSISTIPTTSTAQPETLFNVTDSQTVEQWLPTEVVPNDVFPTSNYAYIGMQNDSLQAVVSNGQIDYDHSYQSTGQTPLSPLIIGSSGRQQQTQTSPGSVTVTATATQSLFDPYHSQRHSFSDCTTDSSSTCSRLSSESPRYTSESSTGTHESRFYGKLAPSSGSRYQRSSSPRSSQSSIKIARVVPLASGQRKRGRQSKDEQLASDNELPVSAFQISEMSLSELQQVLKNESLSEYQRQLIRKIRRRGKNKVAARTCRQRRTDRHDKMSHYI

[9] = blockers of bursicon-stimulated LGR2 cAMP reporter – cell-based, HEK293, CRE-luciferase reporter, cherry pick, set 2, dose response (AID 743343); format: functional;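 further: transfected cells were stimulated with diluted bursicon conditioned medium after compound addition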
[10] = blockade of melanocortin 4 receptor signaling – cell-based, plate reader, cherry pick, counter-screen for LGR2 antagonist project, dose response (AID 743444); format: functional;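 further: transfected HEK 293 cells stimulated with alpha-MSH peptide; potency of inhibitors of the alpha-MSH evoked signal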
[11] = tested on: Streptococcus sp. 'group A'; test: Streptococcus pyogenes SK(-)GAS viability under kanamycin – luminescence, BacTiterGlo, confirmation, counter-screen for streptokinase expression inhibitor project, dose response (AID 1900); format: functional, organism-based
Streptokinase A = molecular target: T4, Streptokinase A (Streptococcus pyogenes serotype M1, UniProt P10520); test: viability-normalized secreted streptokinase activity reduction – plasminogen activation absorbance, OD405, dose response (AID 1914); format: functional, Streptococcus pyogenes M1 GAS;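 further: secreted streptokinase activity via plasminogen activation per viability signal from cell pellet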
T4 sequence (P10520 whole entry): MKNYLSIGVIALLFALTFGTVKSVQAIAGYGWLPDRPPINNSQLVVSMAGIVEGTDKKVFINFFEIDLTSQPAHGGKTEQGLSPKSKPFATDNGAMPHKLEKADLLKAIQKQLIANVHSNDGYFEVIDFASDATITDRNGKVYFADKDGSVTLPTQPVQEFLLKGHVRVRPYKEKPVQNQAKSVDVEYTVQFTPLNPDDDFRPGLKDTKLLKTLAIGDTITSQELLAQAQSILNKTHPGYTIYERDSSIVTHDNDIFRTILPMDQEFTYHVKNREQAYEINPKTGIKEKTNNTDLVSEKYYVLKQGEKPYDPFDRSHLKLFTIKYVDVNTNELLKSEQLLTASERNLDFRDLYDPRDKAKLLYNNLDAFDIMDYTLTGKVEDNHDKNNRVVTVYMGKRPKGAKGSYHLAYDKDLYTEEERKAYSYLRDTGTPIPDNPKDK

[12] = Trypanosoma cruzi growth suppression in host cells – NIH3T3 host cells, beta-gal luminescence, confirmation (AID 2044); format: functional, cell-based;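 further: intracellular parasites grown in NIH/3T3 mouse fibroblasts as host cells; luminescent beta-galactosidase reporter signal from transgenic T. cruzi replicating inside host cells; inhibitors lower the luminescence signal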
[13] = NIH3T3 cell viability loss – ATP luminescence, mouse fibroblasts, counter-screen, dose response (AID 2010); format: functional, cell-based;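 further: cells exposed to compound for about 90 hours before reading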
Streptococcus = test: GAS UMAA2166 growth inhibition – luminescence, BacTiterGlo, counter-screen for streptokinase expression inhibitor project, dose response (AID 1915); format: functional, organism-based;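 further: potency for reduction of bacterial viability or growth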
Nonstructural protein 1 = Nonstructural protein 1 (Influenza A virus, UniProt Q194T2); format: functional, Influenza A virus (A/California/07/2009(H1N1))
Nonstructural protein 1, sequence (Q194T2 whole entry): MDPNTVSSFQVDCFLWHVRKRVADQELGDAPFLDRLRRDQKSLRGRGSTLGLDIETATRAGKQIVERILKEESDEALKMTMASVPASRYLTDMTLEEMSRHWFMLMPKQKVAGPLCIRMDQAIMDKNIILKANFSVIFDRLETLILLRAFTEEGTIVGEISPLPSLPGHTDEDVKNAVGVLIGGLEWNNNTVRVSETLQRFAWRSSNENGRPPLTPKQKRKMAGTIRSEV

Cc1nc2nc(SCC(=O)NCCCN3CCOCC3)nn2c(C)c1Cc1ccccc1
AC50 [1]: 5.43 µM (active)

O=C(O)c1cccc(NS(=O)(=O)c2ccc(-c3ccc(S(=O)(=O)Nc4cccc(C(=O)O)c4)cc3)cc2)c1
IC50 (Genome polyprotein): 49.5 µM (active)

O=C(c1ccc(-c2ccccc2)cc1)C1CCCN(C(=O)c2cncs2)C1 (stereo not drawn)
AC50 [2]: 4.29 µM (active)

COc1ccc(-n2c(C)cc(C(=O)CSc3nnc(-c4ccoc4C)n3C)c2C)cc1
IC50 [3]: 13.8 µM (active)

COc1ccc2nc(Nc3nc4ccc(NC(C)=O)cc4s3)sc2c1
EC50 [4]: 16.9 µM (active)
EC50 [5]: 14 µM (active)

CN1C(=O)NC(=O)/C(=C/c2ccc(C(=O)O)cc2)C1=O
IC50 (Genome polyprotein): 85.1 µM (active)

CC(Oc1ccc2c(-c3ccccc3)cc(=O)oc2c1)C(=O)NCc1ccccn1 (stereo not drawn)
AC50 [1]: 8.99 µM (active)

O=C(O)C1Nc2ccccc2S(=O)(=O)N1 (stereo not drawn)
IC50 [6]: > 100 µM (not active)

COc1ccc(-n2cc(-c3ccccc3)c3c(N4CCN(CCO)CC4)ncnc32)cc1
EC50 [4]: 32.8 µM (active)
EC50 [5]: 30.3 µM (active)

COc1ccc2c(c1)-c1nn(CCCN(C)C)c3ccc([N+](=O)[O-])c(c13)N2
GI50 (P388/ADR): 0.281 µM (active)
GI50 (SN12K1): 0.119 µM (active)
GI50 (P388): 0.163 µM (active)

O=C(/C=C/Nc1ccc(Oc2ccccc2)cc1)c1ccco1
EC50 [7]: 0.617 µM (active)
EC50 [8]: 1.64 µM (active)
IC50 (Protein skinhead-1): > 100 µM (inactive)

O=C(CSc1nncs1)N1c2ccccc2Sc2ccccc21
AC50 [1]: 1.56 µM (active)

Cc1ccc(-c2nnc(-c3ccccc3Br)o2)cc1
AC50 [9]: 14.3 µM (active)
AC50 [10]: 20.3 µM (active)

Cn1cccc1C(=O)Nc1nc(-c2ccccn2)cs1
EC50 [11]: 18.4 µM (active)
EC50 (Streptokinase A): > 150 µM (not active)
EC50 [12]: 2.28 µM (active)
EC50 [13]: 4.47 µM (active)
EC50 (Streptococcus): 58.3 µM (active)
IC50 (Nonstructural protein 1): 11 µM (active)

COc1ccc2oc(/C=C/N(C)C)c(C(=O)c3ccc(Cl)cc3)c2c1
AC50 [2]: 3.8 µM (active)

CCOC(=O)C1CCN(Cc2c(O)oc3ccccc3c2=O)CC1
IC50 [3]: 6.91 µM (active)
